Measured values: US20250062039A1, “ESTIMATION OF PHARMACOKINETIC (PK) PARAMETERS OF DRUG CANDIDATES USING UNIVERSAL PK PARAMETERS BOUNDS” (Tata Consultancy Services Limited, priority 2023, published 2025)
Where two headings read alike, the source gives them in different places.

Columns and labels:
[1] = cited from earlier work; for Conc (plasma concentration): 18.3 mg intravenously, subject 60.9 kg
[2] = Three compartment PK model parameter estimation from etomidate PCT profile (64 bound combinations, MWDO + Nelder Mead); set-up: species or system humans
[3] = MWDO, Upper Bound 1 of Table 18
[4] = MWDO, Upper Bound 2 of Table 18
[5] = MWDO, Upper Bound 3 of Table 18
[6] = Nelder Mead, bound combination 1
[7] = Nelder Mead, bound combination 2
[8] = Nelder Mead, bound combination 3
[9] = best set over all 64 bound combinations

Structure (SMILES): CCOC(=O)c1cncn1[C@H](C)c1ccccc1 [etomidate]
- Conc (plasma concentration) ([1]; Time 0.067 hr): 260 ng/mL
- Conc (plasma concentration) ([1]; Time 0.133 hr): 180 ng/mL
- Conc (plasma concentration) ([1]; Time 0.25 hr): 115 ng/mL
- Conc (plasma concentration) ([1]; Time 0.5 hr): 88 ng/mL
- Conc (plasma concentration) ([1]; Time 1 hr): 59.9 ng/mL
- Conc (plasma concentration) ([1]; Time 2 hr): 32.5 ng/mL
- Conc (plasma concentration) ([1]; Time 3 hr): 21.3 ng/mL
- Conc (plasma concentration) ([1]; Time 4 hr): 15.8 ng/mL
- Conc (plasma concentration) ([1]; Time 5 hr): 12.6 ng/mL
- Conc (plasma concentration) ([1]; Time 6 hr): 11.4 ng/mL
- Conc (plasma concentration) ([1]; Time 7 hr): 10.5 ng/mL
- Conc (plasma concentration) ([1]; Time 8 hr): 9.9 ng/mL
- Conc (plasma concentration) ([1]; Time 9 hr): 9.5 ng/mL
- Conc (plasma concentration) ([1]; Time 10 hr): 9.1 ng/mL
- A, Published parameter value ([1]; three compartment model): 0.297 µg/mL
- Alpha, Published parameter value ([1]; three compartment model): 12.02 h⁻¹
- B, Published parameter value ([1]; three compartment model): 0.117 µg/mL
- Beta, Published parameter value ([1]; three compartment model): 0.935 h⁻¹
- C, Published parameter value ([1]; three compartment model): 0.017 µg/mL
- Gamma, Published parameter value ([1]; three compartment model): 0.064 h⁻¹
- A, Globally optimized Parameter 1 [2, 3]: 0.2958 µg/mL
- Alpha, Globally optimized Parameter 1 [2, 3]: 12.67 h⁻¹
- B, Globally optimized Parameter 1 [2, 3]: 0.1079 µg/mL
- Beta, Globally optimized Parameter 1 [2, 3]: 1.124 h⁻¹
- C, Globally optimized Parameter 1 [2, 3]: 0.02617 µg/mL
- Gamma, Globally optimized Parameter 1 [2, 3]: 0.1092 h⁻¹
- A, Globally optimized Parameter 2 [2, 4]: 0.2529 µg/mL
- Alpha, Globally optimized Parameter 2 [2, 4]: 10.44 h⁻¹
- B, Globally optimized Parameter 2 [2, 4]: 0.1149 µg/mL
- Beta, Globally optimized Parameter 2 [2, 4]: 0.351 h⁻¹
- C, Globally optimized Parameter 2 [2, 4]: 0.005408 µg/mL
- Gamma, Globally optimized Parameter 2 [2, 4]: 0.1074 h⁻¹
- A, Globally optimized Parameter 3 [2, 5]: 0.13 µg/mL
- Alpha, Globally optimized Parameter 3 [2, 5]: 5.539 h⁻¹
- B, Globally optimized Parameter 3 [2, 5]: 0.1089 µg/mL
- Beta, Globally optimized Parameter 3 [2, 5]: 0.3627 h⁻¹
- C, Globally optimized Parameter 3 [2, 5]: 0.005084 µg/mL
- Gamma, Globally optimized Parameter 3 [2, 5]: 0.0375 h⁻¹
- A, Locally Optimized parameter 1 [2, 6]: 0.3151 µg/mL
- Alpha, Locally Optimized parameter 1 [2, 6]: 11.49 h⁻¹
- B, Locally Optimized parameter 1 [2, 6]: 0.1076 µg/mL
- Beta, Locally Optimized parameter 1 [2, 6]: 0.8111 h⁻¹
- C, Locally Optimized parameter 1 [2, 6]: 0.01292 µg/mL
- Gamma, Locally Optimized parameter 1 [2, 6]: 0.03486 h⁻¹
- A, Locally Optimized parameter 2 [2, 7]: 0.3151 µg/mL
- Alpha, Locally Optimized parameter 2 [2, 7]: 11.49 h⁻¹
- B, Locally Optimized parameter 2 [2, 7]: 0.1076 µg/mL
- Beta, Locally Optimized parameter 2 [2, 7]: 0.8111 h⁻¹
- C, Locally Optimized parameter 2 [2, 7]: 0.01292 µg/mL
- Gamma, Locally Optimized parameter 2 [2, 7]: 0.03486 h⁻¹
- A, Locally Optimized parameter 3 [2, 8]: 0.3151 µg/mL
- Alpha, Locally Optimized parameter 3 [2, 8]: 11.49 h⁻¹
- B, Locally Optimized parameter 3 [2, 8]: 0.1076 µg/mL
- Beta, Locally Optimized parameter 3 [2, 8]: 0.8111 h⁻¹
- C, Locally Optimized parameter 3 [2, 8]: 0.01292 µg/mL
- Gamma, Locally Optimized parameter 3 [2, 8]: 0.03486 h⁻¹
- A, Best Parameter/Best locally optimized value [2, 9]: 0.3151 µg/mL
- A, Initial value/globally optimized value [2, 9]: 0.2703 µg/mL
- Alpha, Best Parameter/Best locally optimized value [2, 9]: 11.49 h⁻¹
- Alpha, Initial value/globally optimized value [2, 9]: 7.1437 h⁻¹
- B, Best Parameter/Best locally optimized value [2, 9]: 0.1076 µg/mL
- B, Initial value/globally optimized value [2, 9]: 0.07389 µg/mL
- Beta, Best Parameter/Best locally optimized value [2, 9]: 0.8111 h⁻¹
- Beta, Initial value/globally optimized value [2, 9]: 0.3665 h⁻¹
- C, Best Parameter/Best locally optimized value [2, 9]: 0.01292 µg/mL
- C, Initial value/globally optimized value [2, 9]: 0.01092 µg/mL
- Gamma, Best Parameter/Best locally optimized value [2, 9]: 0.03486 h⁻¹
- Gamma, Initial value/globally optimized value [2, 9]: 0.1479 h⁻¹
